Earlier results on one molecule are cited in publication PMC7494335 (Science Advances, 2020).

For the data set, the system named is humans. As to conditions: in vivo.

Regarding `NCCc1c[nH]cn1` [histamine], the “pain if injected alone / addition to Dendrocnide extract” value is “neither changed the nature of the pain caused by Dendrocnide extract nor caused substantial long-lasting pain if injected alone”.
